Measured values taken from patent US20060110456A1, “Method for biocidal and/or biostatic treatment and compositions therefor” (NATIONAL UNIVERSITY OF SINGAPORE, priority 2004, published 2006).
“Also recorded” adds a separate entry of the source. Counter-ions that a name gives are not always drawn.

Assays:
[1] = system: marine bacteria (ten strains); test: Bio-adhesion assay (crystal violet microplate); assay type: cell-based, marine bacteria isolated from Singapore fouling communities; settings: for Effect of drugs on adhesion of bacteria: 50 μl of 125 μg ml^−1 drug + 200 μl bacteria, 2 hours
Experimental: The effect of pharmaceuticals on bacterial adhesion was analyzed using a modified microplate method adapted from Shea and Williamson (1990). This method consists of staining the attached bacteria with crystal violet, releasing the stain with sodium desoxycholate, and measuring the resulting absorbance of the crystal violet. The absorbance is proportional to the degree of bacterial adhesion to the surface.
Ten strains of bacteria (strain numbers 1, 4, 9, 14, 18, 20, 27, 28, 29 and 30) were chosen for this study. Flat bottom non-tissue culture treated polystyrene (hydrophobic, Falcon #351172) (referred to as polystyrene) and flat bottom tissue culture treated polystyrene (hydrophilic, Falcon #353072) microplates were used in the analyses. These two types of plates were chosen because they were sterile and offered two different kinds of surfaces to determine the adhesion preferences of the bacteria. Each test was done in duplicate. For the control and blank wells, 50 μl of sterile deionized water were added. For those wells that were to contain drugs, 50 μl of drugs at concentration of 125 μg ml^−1 were added. Then 200 μl of bacteria suspension in sterile seawater, whose absorbance had been adjusted to 0.6 at 600 nm using a spectrophotometer (Beckman), were added. Blanks contained 200 μl of sterile seawater.
The bacteria in suspension were allowed to attach for 2 hours at 28° C. Unattached cells were removed by pipetting out almost all trace of liquid and rinsed three times with 300 μl of sterile seawater each time. The attached cells were stained with 200 μl of crystal violet solution (0.1% w/v) in each well for 5 min. After removing the stain by pipetting, the wells were rinsed twice with 300 μl of sterile deionized water each time. Sodium desoxycholate (200 μl) solution (2% w/v) was then added to each well to extract the crystal violet from the stained cells for 10 min. The absorbance of the extracted solution was read at 590 nm using a microplate reader (Sunrise, Tecan, Switzerland).
The data were analyzed using T-test (Two-sample assuming unequal variances) to determine the significance of the absorbance values of each bacterial strain versus the blanks to determine whether there was adhesion, i.e. increase in absorbance. Each drug effect on adhesion was analyzed by comparing the absorbance of each bacterial strain minus the control blank versus bacteria in presence of drug minus the drug control. When the data is significant, there are bacterial cells attached to the surface in the control but in the presence of drugs, there is no attachment.

Bugula neritina larvae = test: Bioassay against bryozoan larvae; assay type: in vivo; settings: crude rank, best (1) to worst (8)
Experimental: Bugula neritina (Phylum Bryozoa, Class Gymnolaemata, Order Cheilostomatida) is a cosmopolitan species of bryozoan, commonly found in most marine fouling communities. The larvae are brooded in ovicells found on the stem of the colonies. When released, the larva will settle quickly on most surfaces, within a few minutes. At 24° C., the settled larvae forms the one-cell ancestrula, and after 48 hours, the lophophore has developed and extended for feeding.
Adult colonies of Bugula neritina were collected from fouling communities growing on the submerged pontoons on a floating fish farm located off Changi, Singapore. Adult animals were maintained in the open-circulation aquarium at St John's island marine laboratory, Singapore. The adults were kept in total darkness for 24 hours. On exposure to light, larvae were released after half an hour. […] Because the larvae will settle quickly, larvae were pipetted directly into test wells in 1 ml of seawater using a graduated glass pipette.
4 replicates were done for each treatment. After 24 hours, larvae were scored as settled, swimming or dead/deformed. The assay plates were usually kept for another 24 hours and checked again, to ascertain that the settled larvae had developed into viable colonies with lophophores. Two trials were repeated for each compound.
Bioassays were carried out using the method described above, in July 2003 during the peak spawning season for Bugula.

[2] = system: hard fouling (barnacles, serpulids, spirorbids); test: Field testing of coated rods; assay type: in vivo; set-up: Total hard fouling, difference in mean cover (%), drug vs control / Barnacles, difference in mean cover (%), drug vs control: tested at 25 µg/ml of coating; Serpulids, difference in mean cover (%), drug vs control: tested at 25 µg/ml of coating mix; settings: for Overall performance in field assay: crude rank, best (1) to worst (8); for Barnacles, difference in mean cover (%), drug vs VC50 / Serpulids, difference in mean cover (%), drug vs VC50 / Spirorbids, difference in mean cover (%), drug vs VC50 / Total hard fouling, difference in mean cover (%), drug vs VC50: drug + VC50 rods vs VC50 control; for Barnacles, difference in mean cover (%), drug vs control / Serpulids, difference in mean cover (%), drug vs control / Spirorbids, difference in mean cover (%), drug vs control / Total hard fouling, difference in mean cover (%), drug vs control: drug + VC50 rods vs uncoated blank control; for Reduction of total hard fouling cover compared to VC50 alone / Effect of addition of drug on antifouling performance of VC50 coating (total hard fouling): drug at 25 ug per ml of VC50 coating; for Barnacles Mean cover (%) / Serpulids Mean cover (%) / Spirorbids Mean cover (%) / Total hard fouling Mean cover (%): rods coated with drug + VC50, field test; for Total hard fouling Mean cover (%): percentage cover within 6 mm×50 mm transect
Experimental: Fouling on rods occurs more rapidly than on flat panels, enabling rapid assessment of the performance of coatings.
6 mm diameter glass rods were cut to 150 mm length and prepared prior to coating by baking in a furnace at 150° C. for 24 hours and then cooling in a dessicator.
All pharmaceuticals were obtained in commercially available form. All tablets were reduced to fine powder with a mortar and pestle, and capsules were opened to extract the contents. The amount of drug powder required to attain the desired concentrations for all tests was calculated from product dosage information and then measured by weight on a high-resolution electronic balance. This was added to the coating and mixed thoroughly prior to application to obtain the concentration of 25 ug active ingredient per ml of coating mix.
The commercial antifouling product used to benchmark field experiments was VC Offshore with Teflon® manufactured by International Coatings.
For our experiments, a reduced copper coating (“VC50”) was prepared by mixing approximately 20 g of #YBA779 into 100 ml of #YBA707. The prepared coating was then allowed to stand so that bubbles from the mixing process dissipated. 15 ml centrifuge tubes were filled with 10 mls of prepared coating. Prepared glass rods were then immersed in the coating to a height of 100 mm and then suspended on a frame to air dry until coating cured.
Five replicate rods were tested for every experimental treatment, including controls. Two sets of controls were used, an uncoated blank control and a VC50 control without pharmaceutical additives. Rod were randomly arrayed on plastic vexar mesh attached to PVC frames and suspended at a depth of 10 cm from the water surface. […] Rods were examined visually weekly for the duration of testing, which typically lasts between 6 to 10 weeks. All fouling was scored as percentage cover of each category within a 6 mm×50 mm transect on each rod.

[3] = in words; cited from earlier work
[4] = strain 1 (Rhodovulum), hydrophobic surface (untreated polystyrene)
[5] = strain 4 (Bacillus), hydrophilic surface (tissue culture treated polystyrene)
[6] = strain 4 (Bacillus), hydrophobic surface (untreated polystyrene)
[7] = strain 9 (Bacillus), hydrophobic surface (untreated polystyrene)

| SMILES | Prevention of settlement of Bugula larvae (Bugula neritina larvae) | Overall performance in field assay [2] | Barnacles, difference in mean cover (%), drug vs VC50 [2] [%] | Serpulids, difference in mean cover (%), drug vs VC50 [2] [%] | Spirorbids, difference in mean cover (%), drug vs VC50 [2] [%] | Total hard fouling, difference in mean cover (%), drug vs VC50 [2] [%] | Barnacles, difference in mean cover (%), drug vs control [2] [%] | Serpulids, difference in mean cover (%), drug vs control [2] [%] | Spirorbids, difference in mean cover (%), drug vs control [2] | Total hard fouling, difference in mean cover (%), drug vs control [2] [%] | Reduction of total hard fouling cover compared to VC50 alone [2] [%] | Barnacles Mean cover (%) [2] [%] | Serpulids Mean cover (%) [2] [%] | Spirorbids Mean cover (%) [2] [%] | Total hard fouling Mean cover (%) [2] [%] | Effect of drugs on adhesion of bacteria [1, 4] | Effect of drugs on adhesion of bacteria [1, 5] | Effect of drugs on adhesion of bacteria [1, 6] | Effect of drugs on adhesion of bacteria [1, 7] | Effect of addition of drug on antifouling performance of VC50 coating (total hard fouling) ([2]; in words) | further results |
| --- | --- | --- | --- | --- | --- | --- | --- | --- | --- | --- | --- | --- | --- | --- | --- | --- | --- | --- | --- | --- | --- |
| CN1CCN(C(c2ccccc2)c2ccccc2)CC1 [CYZ, Cyclizine hydrochloride] | 5 | 5 | −13 | −1.67 | −5 | −19.7 | −77.34 | −6.67 | +6% | −78.0 | 47.2 | 10.33 | 0 | 11.67 | 22.0 | – | – | – | – | – | Effect on bacterial adhesion ([1]; polystyrene or tissue culture surface as named in the value, hydrochloride): did not modify bacterial adhesion on polystyrene; also recorded: marginally increased adhesion for strain 27 in the tissue culture surface; Effect of drugs on adhesion of bacteria ([1]; strain 27, hydrophilic surface (tissue culture treated polystyrene)): *Incr adhesion; Performance against barnacles ([2]; coated rods, in words): significantly lower than both blank and VC50 controls; Performance against serpulid polychaetes ([2]; coated rods, in words): significantly enhanced the performance of VC50 against serpulid polychaetes; Effect of addition of drug on antifouling performance of VC50 coating (total hard fouling) ([2]; in words, hydrochloride): marginally increased the performance of VC50 coating; also recorded: significantly improved the performance of VC50 coating; Solubility [3]: soluble in water |
| CN1CCN(CCCN2c3ccccc3Sc3ccc(Cl)cc32)CC1 [PCZ, prochlorperazine maleate] | 2 | 7 | −7.67 | −1.67 | −6.66 | −16 | −70.67 | −3.33 | +15% | −58 | 16 | 22.33 | 0 | 16.67 | 39 | * (Significantly less adhesion observed: * p < 0.05) | * (Significantly less adhesion observed: * p < 0.05) | * (Significantly less adhesion observed: * p < 0.05) | * (Significantly less adhesion observed: * p < 0.05) | this reduction was not statistically significant | Effect of drugs on adhesion of bacteria ([1]; strain 30, hydrophobic surface (untreated polystyrene)): * (Significantly less adhesion observed: * p < 0.05) |
| CNCCC(Oc1ccc(C(F)(F)F)cc1)c1ccccc1 (stereo not drawn) [PZC, fluoxetine hydrochloride] | 3 | 6 | −14 | −1.67 | −7.67 | −23.37 | −78.34 | −6.67 | +3.33% | −81.67 | ~24 | 9.33 | 0 | 9 | 18.33 | * (Significantly less adhesion observed: * p < 0.05) | – | – | * (Significantly less adhesion observed: * p < 0.05) | did not significantly improve antifouling performance | – |
| CN1CCN(CCCN2c3ccccc3Sc3ccc(C(F)(F)F)cc32)CC1 [TFZ, Trifluoperazine hydrochloride] | 2 | – | – | – | – | – | – | – | – | – | – | – | – | – | – | – | * (Significantly less adhesion observed: * p < 0.05) | *** (*** p < 0.005) | ** (** p < 0.01) | – | Effect of drugs on adhesion of bacteria ([1]; strain 18 (Microbacterium), hydrophilic surface (tissue culture treated polystyrene)): * (Significantly less adhesion observed: * p < 0.05); Effect of drugs on adhesion of bacteria ([1]; strain 27, hydrophobic surface (untreated polystyrene)): *** (*** p < 0.005) |
